{"source": "patent US9890138B2", "about": "“Diaminopyrimidine derivatives and processes for the preparation thereof” (YUHAN CORPORATION, priority 2011, dated 2018)", "note": "Where a name gives a salt, the structure may show the parent alone."}
{"target": "T1, human 5-HT4(a) (Homo sapiens, UniProt Q13639)", "T1 construct": "host or cells: GeneBlAzer HTR4-CRE-bla CHO-K1 cells", "T1 sequence (Q13639 1-387 isoform Q13639-2)": "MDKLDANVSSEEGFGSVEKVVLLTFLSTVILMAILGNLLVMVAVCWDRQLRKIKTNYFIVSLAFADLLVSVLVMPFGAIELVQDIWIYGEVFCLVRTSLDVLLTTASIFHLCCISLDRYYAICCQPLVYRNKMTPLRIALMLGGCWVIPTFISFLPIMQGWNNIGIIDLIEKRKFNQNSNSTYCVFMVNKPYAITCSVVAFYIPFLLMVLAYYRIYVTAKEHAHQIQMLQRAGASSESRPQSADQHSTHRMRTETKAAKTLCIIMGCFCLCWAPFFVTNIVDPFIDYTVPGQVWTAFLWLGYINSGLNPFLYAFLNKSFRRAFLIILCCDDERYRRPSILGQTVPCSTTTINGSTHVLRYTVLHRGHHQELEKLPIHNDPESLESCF", "experiment": "Evaluation of agonistic activity in CHO-K1 cells expressing human 5-HT4(a) (GeneBlAzer HTR4-CRE-bla CHO-K1, beta-lactamase reporter)", "assay_type": "cell-based", "conditions": "CHO-K1 cells stably expressing human 5-HT4(a)", "in_short": "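GeneBlAzer HTR4-CRE-bla CHO-K1 cells, 10^4/well overnight, exposed 5 h to compounds at 8 concentrations in medium with 1% DMSO in the added solution. β-lactamase substrate 2 h in dark; 410 nm excitation, 465/535 nm emission ratio; EC50 by non-linear regression.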", "units": {"EC50": "pM"}}
{"compound": "CCCCc1cc(N2CC[C@H](NCC)C2)nc(Nc2ccc(Cl)c([N+](=O)[O-])c2)n1", "note": "[Example 464]", "EC50": 3.9}
{"compound": "CCCCc1cc(N2CC[C@H](NCC)C2)nc(Nc2cc(N)cc(C#N)c2)n1", "note": "[Example 465]", "EC50": 2.2}
{"compound": "CCCCc1cc(N2CC[C@H](NCC)C2)nc(Nc2cc(N)cc(C(F)(F)F)c2)n1", "note": "[Example 466]", "EC50": 5.8}
{"compound": "CCCCc1cc(N2CC[C@H](NCC)C2)nc(Nc2ccc(N)c(C(F)(F)F)c2)n1", "note": "[Example 467]", "EC50": 1.4}
{"compound": "CCCCc1cc(N2CC[C@H](NCC)C2)nc(Nc2ccc(F)c(C(F)(F)F)c2)n1", "note": "[Example 468]", "EC50": 6.2}
{"compound": "CCCCc1cc(N2CC[C@H](NCC)C2)nc(Nc2ccc(F)c(C#N)c2)n1", "note": "[Example 469]", "EC50": 2.1}
{"compound": "CCCCc1cc(N2CC[C@H](NCC)C2)nc(Nc2ccc(F)c(N)c2)n1", "note": "[Example 470]", "EC50": 2.5}
{"compound": "CCCCc1cc(N2CC[C@H](NCC)C2)nc(Nc2ccc(Cl)c(N)c2)n1", "note": "[Example 471]", "EC50": 3.3}
{"compound": "CCCc1cc(N2CC[C@H](NC(=O)CO)C2)nc(Nc2ccc(C)c(C#N)c2)n1", "note": "[Example 472, (S)—N-{1-[2-(3-cyano-4-methylphenylamino)-6-propylpyrimidin-4-yl]pyrrolidin-3-yl}-2-hydroxyacetamide]", "EC50": 7.5}
{"compound": "CCCc1cc(N2CC[C@H](NC(=O)CO)C2)nc(Nc2ccc(F)c(C#N)c2)n1", "note": "[Example 473]", "EC50": 22}
{"compound": "CCCc1cc(N2CC[C@H](NC(=O)CO)C2)nc(Nc2cc(N)cc(C#N)c2)n1", "note": "[Example 474, (S)—N-{1-[2-(3-amino-5-cyanophenylamino)-6-propylpyrimidin-4-yl]pyrrolidin-3-yl}-2-hydroxyacetamide]", "EC50": 6.6}
{"compound": "CCCc1cc(N2CC[C@H](NC(=O)CO)C2)nc(Nc2cc(N)cc(C(F)(F)F)c2)n1", "note": "[Example 475]", "EC50": 11}
{"compound": "CCCc1cc(N2CC[C@H](NC(=O)CO)C2)nc(Nc2ccc(N)c(C(F)(F)F)c2)n1", "note": "[Example 476]", "EC50": 14}
{"compound": "CCCc1cc(N2CC[C@H](NC(=O)CO)C2)nc(Nc2ccc(F)c(C(F)(F)F)c2)n1", "note": "[Example 477]", "EC50": 9.6}
{"compound": "CCCc1cc(N2CC[C@H](NC(=O)CO)C2)nc(Nc2ccc(F)c(N)c2)n1", "note": "[Example 478]", "EC50": 24}
{"compound": "CCCc1cc(N2CC[C@H](NC(=O)CO)C2)nc(Nc2ccc(Cl)c(N)c2)n1", "note": "[Example 479]", "EC50": 6.4}
{"compound": "CCCc1cc(N2CC[C@H](NC(=O)CO)C2)nc(Nc2ccc(C)c(Cl)c2)n1", "note": "[Example 480]", "EC50": 32}
{"compound": "CCCc1cc(N2CC[C@H](NC(=O)CO)C2)nc(Nc2ccc(C)c(C(F)(F)F)c2)n1", "note": "[Example 481]", "EC50": 9.3}
{"compound": "CCCc1cc(N2CC[C@H](NC)C2)nc(Nc2ccc(F)c(N)c2)n1", "note": "[Example 484]", "EC50": 5.8}
{"compound": "CCCc1cc(N2CC[C@H](NC)C2)nc(Nc2cc(N)cc(C#N)c2)n1", "note": "[Example 485]", "EC50": 2.4}
{"compound": "CCCc1cc(N2CC[C@H](NC)C2)nc(Nc2ccc(N)c(C#N)c2)n1", "note": "[Example 486]", "EC50": 1.4}
{"compound": "CCCc1cc(N2CC[C@H](NC)C2)nc(Nc2cc(N)cc(C(F)(F)F)c2)n1", "note": "[Example 487]", "EC50": 2.1}
{"compound": "CCCc1cc(N2CC[C@H](NCC)C2)nc(Nc2ccc(N)c(C#N)c2)n1", "note": "[Example 489]", "EC50": 1.5}
{"compound": "CCCc1cc(N2CC[C@H](NC)C2)nc(Nc2ccc(F)c(C(F)(F)F)c2)n1", "note": "[Example 490]", "EC50": 4.8}
{"compound": "CCCc1cc(N2CC[C@H](NCC)C2)nc(Nc2ccc(F)c(C(F)(F)F)c2)n1", "note": "[Example 491, (S)-4-[3-(ethylamino)pyrrolidin-1-yl]-N-[4-fluoro-3-(trifluoromethyl)phenyl]-6-propylpyrimidin-2-amine hydrochloride]", "EC50": 2.9}
{"compound": "CCCCc1cc(N2CC[C@H](NC(C)=O)C2)nc(Nc2ccc(C)c(C#N)c2)n1", "note": "[Example 492, (S)-N-{1-[6-butyl-2-(3-cyano-4-methylphenylamino)pyrimidin-4-yl]pyrrolidin-3-yl}acetamide hydrochloride]", "EC50": 19}
{"compound": "CCCc1cc(N2CC[C@H](NC(C)=O)C2)nc(Nc2ccc(C)c(N)c2)n1", "note": "[Example 493, (S)-N-{1-[2-(3-amino-4-methylphenylamino)-6-propylpyrimidin-4-yl]pyrrolidin-3-yl}acetamide hydrochloride]", "EC50": 24}
{"compound": "(S)-2-{1-[2-(indolin-6-ylamino)-6-propylpyrimidin-4-yl]pyrrolidin-2-yl}methanol [Example 217]", "EC50": 230}
{"compound": "(S)-3-amino-5-[4-(3-aminopyrrolidin-1-yl)-6-propylpyrimidin-2-amino]benzonitrile [Example 362]", "EC50": 2.1}
